# Laboratory results taken from patent publication US11174268B2, “Benzenesulfonamide compouds and their use as therapeutic agents” (Xenon Pharmaceuticals Inc., priority 2016, dated 2021).
# Where a name gives a salt, the structure may show the parent alone. Read-outs that look alike come from different tables or passages of the source.
# Key:
# NaV1.1 = NaV1.1 (Homo sapiens (Human), UniProt P35498); experiment: Sodium Influx Assay (Flux), NaV1.1; assay type: cell-based; details: Trex HEK293 cells, ANG2 dye, inactivated state;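 note: channels co-expressed with human β1 subunit and held open by modulators, cells exposed to compounds for one hour at room temperature, IC50 from percent inhibition of influx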
# NaV1.6 = NaV1.6 (Homo sapiens (Human), UniProt Q9UQD0); experiment: Sodium Influx Assay (Flux), NaV1.6; assay type: cell-based; details: Trex HEK293 cells, ANG2 dye, inactivated state;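 note: Tetracycline-induced cells, compounds applied for one hour at room temperature with modulators holding channels open, IC50 from percent inhibition of sodium influx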
# NaV1.5 = NaV1.5 (Homo sapiens (Human), UniProt Q14524); experiment: Sodium Influx Assay (Flux), NaV1.5
# Sequence of NaV1.5 (Q14524 other isoform, or with tags, fused parts or gaps): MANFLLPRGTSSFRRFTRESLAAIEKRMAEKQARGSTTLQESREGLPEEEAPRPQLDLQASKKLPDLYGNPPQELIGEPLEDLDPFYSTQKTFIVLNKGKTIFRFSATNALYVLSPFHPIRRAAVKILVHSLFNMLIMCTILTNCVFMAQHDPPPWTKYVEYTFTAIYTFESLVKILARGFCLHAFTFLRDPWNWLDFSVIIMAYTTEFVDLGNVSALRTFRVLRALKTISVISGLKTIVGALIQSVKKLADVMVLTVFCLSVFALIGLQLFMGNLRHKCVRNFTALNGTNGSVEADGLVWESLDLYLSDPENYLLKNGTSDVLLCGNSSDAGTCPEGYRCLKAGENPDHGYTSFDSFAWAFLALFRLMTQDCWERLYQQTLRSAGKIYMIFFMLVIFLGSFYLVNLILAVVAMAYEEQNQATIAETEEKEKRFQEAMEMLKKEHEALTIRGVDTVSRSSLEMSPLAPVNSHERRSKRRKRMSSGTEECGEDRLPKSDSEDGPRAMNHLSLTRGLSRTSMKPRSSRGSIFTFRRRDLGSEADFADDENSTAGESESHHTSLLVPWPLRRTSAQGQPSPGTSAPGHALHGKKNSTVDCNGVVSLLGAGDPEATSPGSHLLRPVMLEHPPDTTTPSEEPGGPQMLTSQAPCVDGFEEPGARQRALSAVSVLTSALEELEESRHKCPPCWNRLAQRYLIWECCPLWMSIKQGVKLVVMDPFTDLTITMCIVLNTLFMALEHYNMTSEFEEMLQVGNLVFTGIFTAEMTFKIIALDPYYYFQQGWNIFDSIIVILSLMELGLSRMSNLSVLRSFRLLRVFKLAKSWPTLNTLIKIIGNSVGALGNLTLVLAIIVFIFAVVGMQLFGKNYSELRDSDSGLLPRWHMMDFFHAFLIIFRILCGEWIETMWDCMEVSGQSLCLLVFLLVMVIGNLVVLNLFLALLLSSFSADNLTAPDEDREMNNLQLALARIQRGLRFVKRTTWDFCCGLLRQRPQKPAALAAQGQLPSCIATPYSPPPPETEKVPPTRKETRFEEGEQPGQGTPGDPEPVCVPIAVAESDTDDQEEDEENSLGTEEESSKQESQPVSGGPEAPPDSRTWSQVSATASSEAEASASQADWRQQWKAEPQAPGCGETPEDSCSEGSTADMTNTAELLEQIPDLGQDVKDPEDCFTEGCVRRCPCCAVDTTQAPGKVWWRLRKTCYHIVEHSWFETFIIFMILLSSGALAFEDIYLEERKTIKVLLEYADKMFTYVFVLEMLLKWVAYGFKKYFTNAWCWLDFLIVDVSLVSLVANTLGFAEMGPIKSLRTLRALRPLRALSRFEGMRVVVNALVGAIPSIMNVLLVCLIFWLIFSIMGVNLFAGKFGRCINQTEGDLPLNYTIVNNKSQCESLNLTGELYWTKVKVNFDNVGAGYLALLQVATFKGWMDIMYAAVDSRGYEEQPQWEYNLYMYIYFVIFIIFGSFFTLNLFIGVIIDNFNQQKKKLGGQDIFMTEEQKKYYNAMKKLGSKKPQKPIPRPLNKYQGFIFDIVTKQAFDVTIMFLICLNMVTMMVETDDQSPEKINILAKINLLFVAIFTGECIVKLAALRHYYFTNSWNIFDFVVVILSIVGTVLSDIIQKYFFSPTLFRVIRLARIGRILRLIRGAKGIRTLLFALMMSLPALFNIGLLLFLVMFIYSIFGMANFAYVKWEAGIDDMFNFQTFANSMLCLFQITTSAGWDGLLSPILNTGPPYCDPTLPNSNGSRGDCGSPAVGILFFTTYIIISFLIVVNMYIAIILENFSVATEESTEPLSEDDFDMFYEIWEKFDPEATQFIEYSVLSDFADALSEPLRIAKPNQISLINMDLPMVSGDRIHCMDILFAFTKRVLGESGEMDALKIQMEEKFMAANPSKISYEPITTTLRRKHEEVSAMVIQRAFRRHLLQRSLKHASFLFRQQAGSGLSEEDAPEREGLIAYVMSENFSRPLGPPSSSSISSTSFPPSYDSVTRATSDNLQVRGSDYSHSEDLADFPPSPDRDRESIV
# [1] = read-out: Flux NaV1.5 IC50, Trex HEK293 cells, ANG2 dye, inactivated state
SMILES,IC50 (NaV1.1),IC50 (NaV1.6),IC50 (NaV1.5; [1]),IC50 (NaV1.5)
"COCCN(C)Cc1cccc(F)c1CNc1cc(F)c(S(=O)(=O)Nc2cscn2)c(F)c1 [Example 162, 2,6-difluoro-4-((2-fluoro-6-(((2-methoxyethyl)(methyl)amino)methyl)benzyl)amino)-N-(thiazol-4-yl)benzenesulfonamide formate]",30 µM,0.461 µM,11 µM,–
"O=S(=O)(Nc1cscn1)c1c(F)cc(NCc2c(F)cccc2CN2CC3(C2)CC3(F)F)cc1F [Example 163, 4-((2-((1,1-difluoro-5-azaspiro[2.3]hexan-5-yl)methyl)-6-fluorobenzyl)amino)-2,6-difluoro-N-(thiazol-4-yl)benzenesulfonamide]",6.35 µM,0.288 µM,30 µM,–
"CC1CN(Cc2cccc(F)c2CNc2cc(F)c(S(=O)(=O)Nc3cscn3)c(F)c2)C1 [Example 164, 2,6-difluoro-4-((2-fluoro-6-((3-methylazetidin-1-yl)methyl)benzyl)amino)-N-(thiazol-4-yl)benzenesulfonamide formate]",22.8 µM,0.084 µM,20.3 µM,–
"CN(C)Cc1cccc(F)c1CNc1cc(F)c(S(=O)(=O)Nc2cscn2)c(F)c1 [Example 165, 4-((2-((dimethylamino)methyl)-6-fluorobenzyl)amino)-2,6-difluoro-N-(thiazol-4-yl)benzenesulfonamide formate]",14.9 µM,0.361 µM,–,20.8 µM
"CN(Cc1cccc(F)c1CNc1cc(F)c(S(=O)(=O)Nc2cscn2)c(F)c1)CC1(C)COC1 [Example 167, 2,6-difluoro-4-((2-fluoro-6-((methyl((3-methyloxetan-3-yl)methyl)amino)methyl)benzyl)amino)-N-(thiazol-4-yl)benzenesulfonamide formate]",≥ 30 µM,0.405 µM,–,≥ 30 µM
"CC1(C)CN(Cc2cccc(F)c2CNc2cc(F)c(S(=O)(=O)Nc3cscn3)c(F)c2)C1 [Example 170, 4-((2-((3,3-dimethylazetidin-1-yl)methyl)-6-fluorobenzyl)amino)-2,6-difluoro-N-(thiazol-4-yl)benzenesulfonamide]",24.7 µM,0.176 µM,–,15.2 µM
"O=S(=O)(Nc1cscn1)c1c(F)cc(NCc2c(F)cccc2CN2CCC23CCC3)cc1F [Example 173, 4-((2-((1-azaspiro[3.3]heptan-1-yl)methyl)-6-fluorobenzyl)amino)-2,6-difluoro-N-(thiazol-4-yl)benzenesulfonamide formate]",7.22 µM,0.05 µM,19.5 µM,–
"O=S(=O)(Nc1cscn1)c1c(F)cc(NCc2c(F)cccc2CN2CC3CC3C2)cc1F (stereo not drawn) [Example 174, 4-((2-((3-azabicyclo[3.1.0]hexan-3-yl)methyl)-6-fluorobenzyl)amino)-2,6-difluoro-N-(thiazol-4-yl)benzenesulfonamide]",30 µM,0.035 µM,30 µM,–
"CC(C)CN(C)Cc1cccc(F)c1CNc1cc(F)c(S(=O)(=O)Nc2cscn2)c(F)c1 [Example 175, 2,6-difluoro-4-((2-fluoro-6-((isobutyl(methyl)amino)methyl)benzyl)amino)-N-(thiazol-4-yl)benzenesulfonamide]",10.7 µM,0.342 µM,14.5 µM,–
"O=S(=O)(Nc1cscn1)c1c(F)cc(NCc2c(F)cccc2CN2CC(O)(C(F)(F)F)C2)cc1F [Example 176, 2,6-difluoro-4-((2-fluoro-6-((3-hydroxy-3-(trifluoromethyl)azetidin-1-yl)methyl)benzyl)amino)-N-(thiazol-4-yl)benzenesulfonamide formate]",5.75 µM,0.68 µM,16.9 µM,–
"O=S(=O)(Nc1cscn1)c1c(F)cc(NCc2c(F)cccc2CNC2CCC2)cc1F [Example 177, 4-((2-((cyclobutylamino)methyl)-6-fluorobenzyl)amino)-2,6-difluoro-N-(thiazol-4-yl)benzenesulfonamide formate]",5.4 µM,0.046 µM,22.3 µM,–
"CC(C)(C)NCc1cccc(F)c1CNc1cc(F)c(S(=O)(=O)Nc2cscn2)c(F)c1 [Example 178, 4-((2-((tert-butylamino)methyl)-6-fluorobenzyl)amino)-2,6-difluoro-N-(thiazol-4-yl)benzenesulfonamide formate]",13.4 µM,0.265 µM,30 µM,–
"CN(Cc1cccc(F)c1CNc1cc(F)c(S(=O)(=O)Nc2cscn2)c(F)c1)C1CCC1 [Example 179, 4-((2-((cyclobutyl(methyl)amino)methyl)-6-fluorobenzyl)amino)-2,6-difluoro-N-(thiazol-4-yl)benzenesulfonamide formate]",4.6 µM,0.08 µM,6.42 µM,–
"CC1(F)CN(Cc2cccc(F)c2CNc2cc(F)c(S(=O)(=O)Nc3cscn3)c(F)c2)C1 [Example 180, 2,6-difluoro-4-((2-fluoro-6-((3-fluoro-3-methylazetidin-1-yl)methyl)benzyl)amino)-N-(thiazol-4-yl)benzenesulfonamide formate]",22.1 µM,0.166 µM,24.2 µM,–
"CN(Cc1cccc(F)c1CNc1cc(F)c(S(=O)(=O)Nc2cscn2)c(F)c1)C1COC1 [Example 181, 2,6-difluoro-4-((2-fluoro-6-((methyl(oxetan-3-yl)amino)methyl)benzyl)amino)-N-(thiazol-4-yl)benzenesulfonamide formate]",10.6 µM,2.96 µM,30 µM,–
"CCN(CC)Cc1cccc(F)c1CNc1cc(F)c(S(=O)(=O)Nc2cscn2)c(F)c1 [Example 183, 4-((2-((diethylamino)methyl)-6-fluorobenzyl)amino)-2,6-difluoro-N-(thiazol-4-yl)benzenesulfonamide formate]",30 µM,0.036 µM,28 µM,–
"CCC(C)(C)N(C)Cc1cccc(F)c1CNc1cc(F)c(S(=O)(=O)Nc2cscn2)c(F)c1 [Example 184, 2,6-difluoro-4-((2-fluoro-6-((methyl(tert-pentyl)amino)methyl)benzyl)amino)-N-(thiazol-4-yl)benzenesulfonamide formate]",≥ 30 µM,0.332 µM,–,≥ 30 µM
"O=S(=O)(Nc1cscn1)c1c(F)cc(NCc2c(F)cccc2CN2CC3(CC3)C2)cc1F [Example 186, 4-((2-((5-azaspiro[2.3]hexan-5-yl)methyl)-6-fluorobenzyl)amino)-2,6-difluoro-N-(thiazol-4-yl)benzenesulfonamide formate]",15.5 µM,0.019 µM,9.12 µM,–
"CN(Cc1cccc(F)c1CNc1cc(F)c(S(=O)(=O)Nc2ccsn2)c(F)c1)C(C)(C)C [Example 189, 4-((2-((tert-butyl(methyl)amino)methyl)-6-fluorobenzyl)amino)-2,6-difluoro-N-(isothiazol-3-yl)benzenesulfonamide formate]",30 µM,0.522 µM,30 µM,–
"O=S(=O)(Nc1cscn1)c1cc(Cl)c(NCc2cc(F)c(F)cc2CN2CCC2)cc1F [Example 193, 4-((2-(azetidin-1-ylmethyl)-4,5-difluorobenzyl)amino)-5-chloro-2-fluoro-N-(thiazol-4-yl)benzenesulfonamide formate]",8.85 µM,7.49 µM,26.7 µM,–
"O=S(=O)(Nc1cscn1)c1c(F)cc(NCc2cc(CN3CCC3)ccc2F)cc1F [Example 195, 4-((5-(azetidin-1-ylmethyl)-2-fluorobenzyl)amino)-2,6-difluoro-N-(thiazol-4-yl)benzenesulfonamide formate]",27.2 µM,0.688 µM,30 µM,–
"O=S(=O)(Nc1cscn1)c1c(F)cc(NCc2cccc(F)c2CN2CCC2)cc1F [Example 196, 4-((2-(azetidin-1-ylmethyl)-3-fluorobenzyl)amino)-2,6-difluoro-N-(thiazol-4-yl)benzenesulfonamide 2,2,2-trifluoroacetate]",25.9 µM,0.187 µM,30 µM,–
"O=S(=O)(Nc1cscn1)c1c(F)cc(NCc2cccc(F)c2CN2CCC2)c(Cl)c1F [Example 197, 4-((2-(azetidin-1-ylmethyl)-3-fluorobenzyl)amino)-3-chloro-2,6-difluoro-N-(thiazol-4-yl)benzenesulfonamide 2,2,2-trifluoroacetate]",12 µM,0.023 µM,27.6 µM,–
"CC1(C)CCN1Cc1cccc(Cl)c1CNc1cc(F)c(S(=O)(=O)Nc2cscn2)c(F)c1 [Example 199, 4-((2-chloro-6-((2,2-dimethylazetidin-1-yl)methyl)benzyl)amino)-2,6-difluoro-N-(thiazol-4-yl)benzenesulfonamide formate]",4.08 µM,0.213 µM,30 µM,–
"O=S(=O)(Nc1cccc(F)n1)c1cc(Cl)c(NCc2ccccc2CN2CCC2)cc1F [Example 200, 4-((2-(azetidin-1-ylmethyl)benzyl)amino)-5-chloro-2-fluoro-N-(6-fluoropyridin-2-yl)benzenesulfonamide]",4.43 µM,0.496 µM,15.4 µM,–
"CC(C)N(C)Cc1cccc(F)c1CNc1cc(F)c(S(=O)(=O)Nc2ccon2)c(F)c1 [Example 201, 2,6-difluoro-4-((2-fluoro-6-((isopropyl(methyl)amino)methyl)benzyl)amino)-N-(isoxazol-3-yl)benzenesulfonamide 2,2,2-trifluoroacetate]",30 µM,0.561 µM,30 µM,–
"CN(Cc1ccccc1CNc1cc(F)c(S(=O)(=O)Nc2cscn2)c(F)c1)C(C)(C)C [Example 202, 4-((2-((tert-butyl(methyl)amino)methyl)benzyl)amino)-2,6-difluoro-N-(thiazol-4-yl)benzenesulfonamide 2,2,2-trifluoroacetate]",30 µM,0.534 µM,30 µM,–
